How the values were obtained:
[1] = tested on: Collagen I, collagen III, KGF gene expression in Hs-68 cells; test: Real-time PCR of collagen I, collagen III, KGF in Hs-68 cells; assay type: cell-based, human; settings: TP4 6.25 μg/ml, 48 h, vs controls
Experimental: In FIG. 5A-5C, Hs-68 cells were treated with different doses of TP4 for 48 h, and cell viability was measured by neutral red, LDH, and MTT assays. (r=3; n=6.) In FIG. 5D-5F, the experimental Hs-68 cells were treated with TP4 ([…]), while control cells were untreated. After 48 h, total RNA was isolated and reverse transcribed for use in real-time qPCR analysis. Six replicate wells were analyzed per assay. Results represent the mean±SEM from three independent experiments. (Student's t-test: *, P<0.05; **, P<0.01; n.s.: not significant).
Total RNA was isolated from HaCaT and Hs-68 cells, and purified using a Qiagen RNeasy kit. Reverse transcription into cDNA was performed with an iScript cDNA Synthesis Kit (BIO-RAD, USA) according to the manufacturer's recommendations. Real-time polymerase chain reaction (PCR) was performed to analyze gene expression, using […] of cDNA, 2× iQSYBR® Green Supermix (BIO-RAD, USA), and 500 nM of forward and reverse primers against selected genes or GAPDH (reference gene), according to the instructions of the manufacturer. Quantitative PCR was performed under the following conditions: 40 cycles of 1 min at 95° C., 30 s at 55° C., and 1 min at 72° C. The threshold cycle number (Ct) was calculated with BIO-RAD software. Relative transcript quantities were calculated using the ΔCt method with GAPDH as the internal reference gene. ΔCt is the difference in the threshold cycles of messenger (m)RNA for selected genes relative to those of GAPDH mRNA. Real-time PCR was performed in triplicate for each experimental group.

[2] = tested on: Keratin 10, keratin 17 gene expression in HaCaT cells; test: Real-time PCR of keratin 10 and keratin 17 in HaCaT cells; assay type: cell-based, human; settings: TP4 6.25 μg/ml, 48 h
Experimental: In FIG. 6A-6C, HaCaT cells were treated with different doses of TP4 for 48 h, and cell viability was measured by neutral red, LDH, and MTT assays (r=3; n=6). In FIGS. 6D and 6E, thee experimental HaCaT cells were treated with TP4 (6.25 μg/ml), while control cells were untreated. After 48 h, total RNA was isolated and reverse transcribed for use in real-time qPCR analysis. Six replicate wells were analyzed per assay. Results represent the mean±SEM from three independent experiments. (Student's t-test: *, P<0.05; **, P<0.01, n.s.: not significant).
Total RNA was isolated from HaCaT and Hs-68 cells, and purified using a Qiagen RNeasy kit. Reverse transcription into cDNA was performed with an iScript cDNA Synthesis Kit (BIO-RAD, USA) according to the manufacturer's recommendations. […] Quantitative PCR was performed under the following conditions: 40 cycles of 1 min at 95° C., 30 s at 55° C., and 1 min at 72° C. The threshold cycle number (Ct) was calculated with BIO-RAD software. Relative transcript quantities were calculated using the ΔCt method with GAPDH as the internal reference gene. ΔCt is the difference in the threshold cycles of messenger (m)RNA for selected genes relative to those of GAPDH mRNA. […]

[3] = tested on: MRSA; test: Mouse model of MRSA sepsis, TP4; assay type: in vivo, Balb/c mice
Experimental: Female Balb/c mice (6-8 weeks old) were injected intraperitoneally with 10^6 CFU MRSA per mouse. Ten minutes after MRSA injection, mice were injected intraperitoneally with vancomycin (0.01 mg/g mouse body weight), methicillin (0.01 mg/g mouse body weight), or TP4 (0.005 mg/g mouse body weight). In a second set of experiments, mice were given intraperitoneal injections of TP4 (0.005 mg/g mouse body weight) at 10, 60, 120, or 180 min after MRSA injection. Survival rate and status were recorded every 24 h for up to 192 h. To examine bacterial dissemination, mice were sacrificed at 48 h after injection with antibiotics or TP4, and the bacterial numbers in blood, peritoneum, spleen, liver, and mesenteric lymph nodes were recorded. Colony counts from the diluted bacterial solutions were expressed relative to those at the start of treatment. These experiments consisted of four groups, and each group contained 10 mice.
Infected mice were untreated, or treated with TP4, methicillin, or vancomycin via i.p. injection. Bacterial numbers in blood, peritoneum, spleen, liver, and mesenteric lymph nodes were subsequently recorded. Colony counts from the diluted bacterial solutions are expressed relative to those at the start of treatment. Each value represents the mean value from three determinations±standard deviation (SD).

[4] = tested on: EGF, TGF-β, VEGF gene expression; test: Real-time PCR of cell proliferation genes and histology of infected wounds, TP4; assay type: in vivo, mice
Excerpt: Adult mice were infected with MRSA, and treated with TP4 or antibiotics, while controls were infected but untreated. On the indicated days, total RNA was isolated from the wound and reverse transcribed for use in real-time qPCR analysis of EGF (FIG. 10A), TGF-β (FIG. 10B), and VEGF (FIG. 10C) gene expression. (r=3; n=6.) Values with different letters show significant differences (P<0.05), as determined by ANOVA.
Tracings were taken immediately after injury. For uncontaminated wounds, wound size was determined every second day. For contaminated wounds, mice were euthanized at days 3, 5, or 19, and tracings of the wound edges were made. Wound areas were determined using the Macintosh Adobe Photoshop program, Histogram Analysis. The percentage of wound contraction was calculated as follows: % Wound contraction=(A0−At)/A0×100, where A0 is the original wound area, and at is the area of wound at the time of biopsy, accordingly. Cell proliferation gene expression was performed by real-time PCR, using the methods described above.
Skin tissues were removed and fixed as previously described. In brief, the cryosections were fixed with 4% formaldehyde, and the tissue samples were stained with VEGF. IHC was analyzed by three independent investigators. Images were taken using a BX-51 microscope (Olympus, Japan). ELISA was performed as previously described.

[5] = 48 hours after the last treatment

## Tilapia piscidin 4 (FIHHIIGGLFSAGKAIHRLIRRRRR; listed as Oreochromis niloticus) [TP4]
[1]
  Collagen I gene expression: enhanced
  Collagen III gene expression: enhanced
  KGF gene expression: enhanced
[2]
  gene expression of keratin 10: significantly increased
  gene expression of keratin 17: did not affect
[3]; [5]
  Mean ± SD count, Blood: 0^A CFU/mL
  Mean ± SD count, Liver: 2.4 × 10^4 ± 1 × 10^6A CFU/mL
  Mean ± SD count, Mesenteric lymph nodes: 6 × 10^5 ± 1 × 10^5A CFU/mL
  Mean ± SD count, Peritoneum: 1 × 10^6 ± 1 × 10^4A CFU/mL
  Mean ± SD count, Spleen: 3 × 10^6 ± 1.2 × 10^6A CFU/mL
[3]; 8 days after MRSA infection, i.p. 10 min after MRSA, TP4 0.005 mg/g, vancomycin and methicillin 0.01 mg/g
  survival rate: 100%
[3]; P<0.05
  bacterial burden in organs vs untreated controls: significantly reduced the bacterial burden in all examined organs
[3]; TP4 0.005 mg/g injected 10 min after MRSA
  survival rate: 100%
[3]; TP4 0.005 mg/g injected 60 min after MRSA
  survival rate: 80%
[3]; TP4 0.005 mg/g injected 120 min after MRSA
  survival rate: 60%
[3]; TP4 0.005 mg/g injected 180 min after MRSA
  survival rate: 50%
[3]; monitored for 2 day after injection, MRSA 10^6 CFU i.p.
  % lethality: 0^A %
[4]; TP4-treated wounds
  epidermal regeneration, histological examination of biopsies: complete and architecturally normal epidermal regeneration
[4]; wound tissue, 3 days, vs control and vancomycin-treated mice
  gene expression of EGF: enhanced gene expression
[4]; wound tissue, 7 days, vs control and vancomycin-treated mice
  gene expression of TGF: enhanced gene expression
[4]; wound tissue, 14 days, vs control and vancomycin-treated mice
  gene expression of VEGF: enhanced gene expression

— patent US9925235B2, “Tilapia piscidins for use in enhancement of wound healing” (Academia Sinica, priority 2015, dated 2018)
